The results in this text go back to US20070254288A1, “Diagnostic methods for pain sensitivity and chronicity and for tetrahydrobiopterin-related disorders” (The General Hospital Corporation, priority 2005, published 2007).

One data set concerns biopterin. The experiment in a line: Forskolin stimulation of whole blood from healthy volunteers: biopterin. The class given is cell-based, human. As to conditions: 10 μM, 24 h. The source says: FIGS. 14C-14F show the effect of forskolin on patient white blood cells. […] White bars unstimulated; grey after stimulation. […] Results represent means with SEM.
In data set [1] the test system is Sprague Dawley rats. As to the kind of experiment: Nociceptive thresholds in naïve animals (von Frey, radiant heat). The class given is in vivo, rat. Here is the method: (§1) Animals were fully habituated and experiments performed blinded. Threshold for eliciting a withdrawal reflex to graded strength monofilament von Frey hairs (0.0174-20.9 g) was measured to assess mechanical allodynia. To measure cold allodynia, a drop of acetone was applied to the plantar hindpaw, and the time the animal spent licking, shaking or lifting the paw was measured (Tegeder et al., J Neurosci 24:1637-1645 (2004)). Paw withdrawal latency to radiant heat (lamp with 8 V, 50 W) assessed heat evoked pain (Ugo Basile).
(§2) DAHP was dissolved in 1:1 polyethylene glycol (PEG400) and 1×PBS, pH 7.4 (15 mg/ml) and administered i.p. or intrathecally (250 μg/kg/h; 5 μl/h). For all i.t. injections/infusions a spinal catheter (Recathco) was used and implanted as described (Kunz et al., Pain 110:409-418 (2004)). Infusions with an osmotic pump (Alzet). 6R-BH4 in ACSF was injected i.t. (10 μg, single 10 μl injection). N-acetyl-serotonin in 1×PBS pH 7.4 containing 3% ethanol was delivered by i.t. infusion (100 μg/kg/h; 5 μl/h). Control animals received the appropriate vehicle. All drugs from Sigma-Aldrich.

Data set [2] is described as follows: Observation of general well-being, body weight, gait, activity. Type of data set: in vivo, rat. Conditions: 100 μg/kg/hr i.t. after SNI.
The subject of data set [3] is Sprague Dawley rats. The experiment in a line: CFA-induced paw inflammation: thermal hyperalgesia (Hargreaves). The class given is in vivo, rat. Conditions: single dose 50 mg/kg i.p.; 50 mg/kg. The method, then: Adult male Sprague Dawley rats (150-200 g, Charles River Laboratories) were used. For the SNI model two branches of the sciatic nerve, the common peroneal and the tibial nerve, were ligated and sectioned distally. For the CCI model the sciatic nerve was constricted with three Dexon 4/0 ligatures. For the SNL model, the L5 spinal nerve was tightly ligated. All surgical procedures were under isoflurane anesthesia. For the Formalin test 50 μl of 5% formaldehyde solution were injected into a hindpaw and flinches were counted per minute up to 60 min. Paw inflammation was induced with 50 μl complete Freund's adjuvant (CFA) injected into a hindpaw. Nociceptive analysis was done blinded, and animals were fully habituated to the room and test cages. Mechanical allodynia was assessed with graded strength monofilament von Frey hairs (0.0174-20.9 gram, log scaled), cold allodynia with the acetone test and heat hyperalgesia with the Hargreaves test. […]
For the Formalin test 50 μl of 5% formaldehyde solution were injected into one hindpaw and flinches were counted per minute up to 60 min. […]
as §1
Data are means ±SEM. […] Areas under the “effect versus time” curves (AUC) were calculated using the linear trapezoidal rule and compared with Student's t-test or univariate analysis of variance (ANOVA) with subsequent t-tests employing a Bonferroni alpha-correction for multiple comparisons. All other data were analyzed with univariate ANOVA or ANOVA for repeated measurements. […]

In data set [4] the test system is Sprague Dawley rats. The experiment in a line: Spared nerve injury (SNI) model: mechanical (von Frey) and cold (acetone) allodynia. Type of data set: in vivo, rat. As to conditions: SNI. The method, then:
Adult male Sprague Dawley rats (150-200 g, Charles River Laboratories) were used. For the SNI model two branches of the sciatic nerve, the common peroneal and the tibial nerve, were ligated and sectioned distally. For the CCI model the sciatic nerve was constricted with three Dexon 4/0 ligatures. For the SNL model, the L5 spinal nerve was tightly ligated. All surgical procedures were under isoflurane anesthesia. For the Formalin test 50 μl of 5% formaldehyde solution were injected into a hindpaw and flinches were counted per minute up to 60 min. Paw inflammation was induced with 50 μl complete Freund's adjuvant (CFA) injected into a hindpaw. Nociceptive analysis was done blinded, and animals were fully habituated to the room and test cages. Mechanical allodynia was assessed with graded strength monofilament von Frey hairs (0.0174-20.9 gram, log scaled), cold allodynia with the acetone test and heat hyperalgesia with the Hargreaves test. Drugs (Sigma) were injected intraperitoneally or intrathecally through a spinal catheter, osmotic pumps were used for infusion. Control animals received vehicle. L4/5 DRG and spinal cord tissue was processed for QRT-PCR, Western blotting, in situ hybridization and immunofluorescence studies.
as §1, §2
Data are means ±SEM. The number of animals per group was 9-12. Areas under the “effect versus time” curves (AUC) were calculated using the linear trapezoidal rule and compared with Student's t-test or univariate analysis of variance (ANOVA) with subsequent t-tests employing a Bonferroni alpha-correction for multiple comparisons. All other data were analyzed with univariate ANOVA or ANOVA for repeated measurements. P at 0.05 for all tests.

Data set [5] has as its system BH4 synthesis (GTP cyclohydrolase activity). The experiment in a line: Tissue concentrations of neopterin and biopterin in L4/5 DRGs (LC/MS-MS). Type of data set: in vivo, rat. Conditions: seven days after SNI. Here is the method: Homogenized tissue was oxidized with iodine, and pteridines were extracted on Oasis MCX cartridges. Concentrations of total biopterin, neopterin, and the internal standard rhamnopterin were determined by LC/MS-MS. LC analysis under gradient conditions on a Nucleosil C8 column; MS-MS analyses on an API 4000 Q TRAP triple quadrupole mass spectrometer. Precursor-to-product ion transitions of m/z 236→192 for biopterin, m/z 252→192 for neopterin, m/z 265→192 for rhamnopterin were used for the MRM. Linearity from 0.1-50 ng/ml. The coefficient of correlation for all measured sequences was at least 0.99. The intra-day and inter-day variability was <10%.

Data set [6] concerns cultured adult rat DRG neurons. The experiment in a line: Calcium imaging (fura-2) in cultured adult rat DRG neurons. Type of data set: cell-based. Here is the method:
Miniature EPSCs were recorded at −70 mV by whole cell patch clamp in adult rat transverse spinal cord slices (Baba et al., Mol Cell Neurosci 24:818-830 (2003)). Intracellular [Ca]I was measured fluorometrically (ΔF 340/380) in cultured adult DRG neurons loaded with fura-2. 6R-BH4 (0.3-10 μM), DEA-NONOate (50 μM), and L-NAME (10-100 μM) were applied using a multibarrel fast drug delivery system.

SMILES strings stand for the structures. “Also recorded” adds a separate entry of the source. Where a name gives a salt, the structure may show the parent alone.

For the compound `C=C[C@@]1(C)CC(=O)[C@]2(O)[C@@]3(C)[C@@H](O)CCC(C)(C)[C@@H]3[C@H](O)[C@H](OC(C)=O)[C@@]2(C)O1` [forskolin], the “biopterin increase in whole blood” value in the data set on biopterin (homozygous carriers of the haplotype) is on record as 20%; in the data set with biopterin (non-carriers), “about 60%”.

For `Nc1nc2ncc([C@H](O)[C@H](O)CO)nc2c(=O)[nH]1` [neopterin], the “mechanical and thermal pain sensitivity” value with Sprague Dawley rats [1] (naïve rats, i.t. 10 μg, 10 μl) is “had no effect on mechanical and thermal pain sensitivity; also recorded: had no significant effect”.

`CC(=O)NCCc1c[nH]c2ccc(O)cc12` [NAS, N-acetyl-serotonin]: the overt adverse effects result in data set [2] is listed as “without overt adverse effects”. Besides, in the data set with Sprague Dawley rats [3], the thermal hyperalgesia entry is “significantly reduces thermal hyperalgesia”. For the same compound, the “mechanical and cold allodynia” value in the data set on Sprague Dawley rats [4] (100 μg/kg/h i.t. infusion 14 days) was “significantly reduced mechanical and cold allodynia; also recorded: significantly reduces nerve-injury evoked mechanical and cold allodynia”. The “total biopterin levels in L4/5 DRGs” value in data set [5] is “reduced biopterin levels; also recorded: significantly reduces total biopterin levels”.

With `C[C@H](O)[C@H](O)[C@H]1CNc2nc(N)[nH]c(=O)c2N1` [6R-BH4, (6R)-5,6,7,8-tetrahydrobiopterin dihydrochloride], the “latency of pain production” value in the data set with Sprague Dawley rats [1] (rat, in vivo) is given as less than 30 min. Moreover, the “recorded cells with increased intracellular calcium” value in data set [6] (0.3-10 μM, n=95) was found to be 67%.

Consider `COC(=O)[C@@H](N)CCCNC(=N)N[N+](=O)[O-]` [L-NAME], for which the “BH4 mediated increase in [Ca2+]I” value in data set [6] (50 μM) was “significantly reduced the BH4 mediated increase”. For the same compound, the “DEA-NONOate induced increase of [Ca2+]I” value in data set [6] (L-NAME 50 μM, DEA-NONOate 50 μM) was “has no effect”. Also, in data set [6] (n=29, p<0.01), the “reduction of the BH4 effect on intracellular calcium” value came to 47±4%. In addition, in the data set on Sprague Dawley rats [4] (25 mg/kg i.p., 25 mg/kg), the “mechanical and cold allodynia” value was “significant effects for von Frey and acetone responses; also recorded: reduced SNI-evoked mechanical and cold allodynia”.

For `CCN(CC)/[N+]([O-])=N/O.CCNCC` [DEA-NONOate], the intracellular calcium increase result in data set [6] (50 μM, n=32, compared with BH4) is on record as “produced similar increases”.
